# Test results: US9657046B2, “Methods for the treatment and prevention of inflammatory diseases” (Children's Medical Center Corporation, priority 2010, dated 2017)
# What was measured:
# BALB/c mice = experiment: OVA-induced AHR in adult mice treated with glycolipid at 2 weeks of age; assay type: in vivo, mouse; details: 2 wk old mice treated i.p. (α-C-GalCer 5 μg, α-GalCer 2 μg, PI57 50 or 100 μg, PBS30 50 μg); AHR induced 6 wks (42 days) later
# Description: In FIGS. 6A-6B, two-week-old BALB/c mice (n=6-8/group) (6A) or Tbet^−/− mice (6B) (n=4-6 per group) received 5 μg […] (cGal), 2 μg α-GalCer, or vehicle. After OVA sensitization and challenge, AHR was measured on day 44. In FIG. 6C, donor mice were treated with α-C-GalCer (5 μg) or vehicle i.p. NKT cells served as donors, as in FIG. 4A (n=4 per group). Lung resistance (left) and cell counts in BAL (right) were assessed. […] In FIG. 6E, mice received PI57 (50 μg), α-GalCer (2 μg), or vehicle i.p., and lungs were examined 1 or 14 days later for CD4 and CD8 expression. In FIG. 6F, absolute numbers of CD4^+ NKT and DN NKT subsets from 6E were assessed. In FIG. 6G, BALB/c mice (n=5-8/group) received PI57 or vehicle i.p. Lung resistance (left) and BAL cells (right) were assessed. In FIG. 6H, BALB/c mice treated with PI57 (50 μg), PBS30 (Sphingomonas glycolipid) (50 μg), or vehicle i.p. were assessed for AHR as in 6G. In FIG. 6I, donor mice were treated with PI57 (50 μg) or vehicle i.p. NKT cells served as donors as in FIG. 4A. Lung resistance (left) and BAL cells (right) were assessed (n=4 per group). […] Data represent 2-3 independent experiments. *P<0.05, #P<0.05, ***P<0.001 versus vehicle-OVA (6C, 6G, and 6I), DN NKT saline (6F), and CD4^+ NKT saline (6F).
# Induction of AHR and measurement of airway responsiveness in the OVA model.
# To induce AHR, BALB/c mice were sensitized with 100 μg of OVA (Sigma-Aldrich) in alum administered i.p (on day 0). After sensitization, mice were exposed to intranasal antigen (50 μg OVA/day) or normal saline for 1 day (day 7; single dose challenge protocol), or for 3 consecutive days (days 7, 8, 9). AHR was assessed on the day after last OVA-challenge. Control mice received i.p. injection of PBS and intranasal administrations of normal saline.
# [1] = system: OVA-sensitized BALB/c mice; experiment: Adoptive transfer of NKT cells from glycolipid-treated mice into OVA-sensitized BALB/c recipients (AHR, BAL); assay type: in vivo, mouse; details: OVA-sensitized WT recipients; for AHR in recipients of NKT cells from glycolipid-treated donors: donors treated i.p. at 2 wk (α-C-GalCer 5 μg, PI57 50 μg, or α-GalCer), NKT cells harvested 6 wks later
# NKT cells = details: cited from earlier work
# pulmonary NKT cells = experiment: Lung NKT cell subsets (CD4+, DN) by FACS after i.p. glycolipid in 2 week-old mice; assay type: in vivo, mouse; details: i.p. PI57 50 μg or α-GalCer 2 μg, lung 2 wks later
# Description: In FIGS. 6A-6B, two-week-old BALB/c mice (n=6-8/group) (6A) or Tbet^−/− mice (6B) (n=4-6 per group) received 5 μg […] (cGal), 2 μg α-GalCer, or vehicle. After OVA sensitization and challenge, AHR was measured on day 44. In FIG. 6C, donor mice were treated with α-C-GalCer (5 μg) or vehicle i.p. NKT cells served as donors, as in FIG. 4A (n=4 per group). Lung resistance (left) and cell counts in BAL (right) were assessed. […] In FIG. 6E, mice received PI57 (50 μg), α-GalCer (2 μg), or vehicle i.p., and lungs were examined 1 or 14 days later for CD4 and CD8 expression. In FIG. 6F, absolute numbers of CD4^+ NKT and DN NKT subsets from 6E were assessed. In FIG. 6G, BALB/c mice (n=5-8/group) received PI57 or vehicle i.p. Lung resistance (left) and BAL cells (right) were assessed. In FIG. 6H, BALB/c mice treated with PI57 (50 μg), PBS30 (Sphingomonas glycolipid) (50 μg), or vehicle i.p. were assessed for AHR as in 6G. In FIG. 6I, donor mice were treated with PI57 (50 μg) or vehicle i.p. NKT cells served as donors as in FIG. 4A. Lung resistance (left) and BAL cells (right) were assessed (n=4 per group). […]
# Cells were preincubated with anti-Fey blocking mAb (2.4G2) and washed before staining. […] Cells were analyzed on a BDCanto flow cytometer (BD Biosciences) using FlowJo 8.3.3 software (Tree Star, Inc.).
SMILES,protection against development of OVA-induced AHR (lung resistance) (BALB/c mice),"airway inflammation (BAL cells, lung sections) in recipients of NKT cells from glycolipid-treated donors ([1]; donors treated i.p. at 2 wk (α-C-GalCer 5 μg, PI57 50 μg))",AHR in recipients of NKT cells from glycolipid-treated donors [1],"cytokine synthesis induced (IFN-γ, IL-4) (NKT cells)",number of NKT cells (CD4+ and DN subsets) in the lung (pulmonary NKT cells)
"CCCCCCCCCCCCCCCCCCCCCCCCCC(=O)N[C@@H](CC[C@H]1OC(CO)[C@H](O)C(O)C1O)[C@H](O)[C@H](O)CCCCCCCCCCCCCC (stereo partly drawn) [α-C-GalCer, α-C-Galactosylceramide]",protected the mice as adults (42 days later) from the development of OVA-induced AHR,protected recipients against the development of AHR and airway inflammation,protected recipients against the development of AHR,preferentially induces IFN-γ but not IL-4 synthesis,–
"CCCCCCCCCCCCCCCCCCCCCCCCCC(=O)N[C@@H](CO[C@H]1O[C@H](CO)[C@H](O)[C@H](O)[C@H]1O)[C@H](O)[C@H](O)CCCCCCCCCCCCCC [α-GalCer, α-Galactosylceramide]",did not prevent OVA induced AHR,–,"reduced AHR slightly, but this was not statistically significant",induces production of both IFN-γ and IL-4,increased both CD4^+ and DN NKT cells in the lungs
